Experimental data reported in paper PMC6095608 (PLoS ONE, 2018).

What was measured:
[1] = molecular target: T1, MATE1 (Homo sapiens, UniProt Q96FL8); assay: Inhibition of net [14C]-metformin uptake in MDCK-MATE1 cells; type: cell-based; settings: 50 μM metformin, 5 min, pH 8.0, efavirenz 0.01–50 μM, read-out: IC50, inhibition of net MATE1-mediated [14C]-metformin uptake
T1 construct: expressed in transfected cells; host or cells: MDCKII (MDCK-MATE1)
Description: The singly-transfected OCT1, OCT2, MATE1 or control MDCK cells were seeded on 12-well plates at a density of 0.5 x 10^6 cells per well and cultivated in standard cultivation medium MEM (Gibco) + 10% FBS. Forty-eight hours after seeding, uptake experiments with radiolabelled metformin were performed. Cells were washed with 500 μl pre-warmed HBSS buffer of pH 7.4 (for OCTs) or 8.0 (for MATE1). Solutions of [^14C]-metformin (50 μM) in HBSS buffer of pH 7.4 or 8.0 with or without efavirenz were then added, and the resulting mixtures were left to stand for an accumulation period of 5 minutes. […] After the accumulation period, the solutions were aspirated and the cells were washed three times with 500 μl ice-cold HBSS buffer of pH 7.4 or 8.0 before being lysed with 0.02% sodium dodecyl sulphate (SDS). The intracellular accumulation of radioactivity was detected using a liquid scintillation counter (Tri-Carb 2910 TR Perkin Elmer), and protein concentrations in the cell lysates were measured by the BCA protein assay. Net transporter-mediated uptake was obtained by subtracting the accumulation of metformin in vector control cells from that in drug transporter-overexpressing cells.
A p value of ≤ 0.05 was considered statistically significant. […]

[2] = molecular target: T2, OCT2 (Homo sapiens, UniProt O15244); assay: Transcellular transport assay across MDCK-OCT2 monolayers; type: cell-based; settings: 10 μM efavirenz, 2 h
T2 construct: expressed in transfected cells; host or cells: MDCKII (MDCK-OCT2)
T2 sequence (O15244 1-555): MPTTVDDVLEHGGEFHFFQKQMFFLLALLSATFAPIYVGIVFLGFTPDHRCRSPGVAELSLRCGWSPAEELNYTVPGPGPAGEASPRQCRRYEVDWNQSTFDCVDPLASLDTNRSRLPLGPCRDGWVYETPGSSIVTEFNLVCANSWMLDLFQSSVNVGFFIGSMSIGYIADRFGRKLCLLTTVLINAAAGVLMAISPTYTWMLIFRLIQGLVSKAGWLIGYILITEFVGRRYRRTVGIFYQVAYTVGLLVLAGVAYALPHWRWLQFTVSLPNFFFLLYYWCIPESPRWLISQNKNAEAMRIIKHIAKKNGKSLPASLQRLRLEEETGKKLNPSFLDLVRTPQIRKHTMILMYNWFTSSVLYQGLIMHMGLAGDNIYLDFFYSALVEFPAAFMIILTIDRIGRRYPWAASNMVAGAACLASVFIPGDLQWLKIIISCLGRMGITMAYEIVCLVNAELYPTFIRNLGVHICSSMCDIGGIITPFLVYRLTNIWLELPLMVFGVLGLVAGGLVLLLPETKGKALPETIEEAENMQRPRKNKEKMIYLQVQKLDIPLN
Description: (§1) Transport experiments employing polarized monolayers of MDCK-OCT1, MDCK-OCT2, or MDCK-MATE1 cell lines as well as doubly transfected MDCK-OCT1-MATE1 or MDCK-OCT2-MATE1 lines and the non-transfected parental control MDCK-Co cells grown on Transwell 3402 cell culture inserts (3.0 μm pore size, 24 mm diameter; Costar, Corning, NY) were performed as described previously. The number of cells per well was 0.5 x 10^6 in all experiments, and the cells were incubated for 3 days to confluence in standard cultivation medium MEM (Gibco) + 10% FBS. After 3 days’ cultivation, medium was removed from both sides and the cells of the monolayer were washed using pre-warmed PBS. […] The pH of the medium on the basolateral side was 7.4, while that on the apical side was set to 6.0 (adjusted by adding HCl or NaOH, when necessary) to ensure optimal MATE1 transport activity. Cells were incubated at 37°C in 5% CO2 for 2 hours. At the end of the incubation period, 50 μl aliquots were sampled and the rest of the medium was immediately removed. The cells were then washed twice with ice-cold PBS, the membranes supporting cellular monolayers were excised, and the cells were dissolved in a 0.02% SDS solution. The radioactivity of the collected samples and lysed monolayers was measured by liquid scintillation counting (Tri-Carb 2910 TR Perkin Elmer), and the protein concentration of the cell lysates was quantified using the BCA protein assay. Transport rates were recorded in pmol per mg protein in the cellular monolayer.

[3] = molecular target: T1, MATE1; assay: Transcellular transport assay across MDCK-MATE1 monolayers; type: cell-based; settings: 10 μM efavirenz, 2 h
Description: as §1

[4] = system: OCT1 and MATE1; assay: Transcellular transport assay across doubly transfected MDCK-OCT1-MATE1 monolayers; type: cell-based, human; settings: 10 μM efavirenz, 2 h
Description: as §1

[5] = system: parental MDCK cell line; assay: Calcein efflux assay in parental MDCK cells; type: cell-based, canine; settings: calcein AM 0.25 μM, efavirenz 0.01–50 μM
Description: ABC transporter-expressing MDCK cells were seeded in 96-well plates at a density of 25 x 10^3 cells per well and cultivated in DMEM medium supplemented with 10% FBS. […] Intracellular fluorescence was then measured using excitation and emission wavelengths of 350 nm and 465 nm, respectively. […] Calcein fluorescence was measured using excitation and emission wavelengths of 496 nm and 516 nm, respectively.

[6] = Efavirenz plasma concentration in patients (literature); type: in vivo, human; settings: calculated from average plasma concentration and unbound percentage
[7] = system: MRP transporters; parameters: method as in PMID 17172311; settings: only at 50 μM; cited from earlier work
[8] = molecular target: MDR1 (Homo sapiens, UniProt P08183); assay: Hoechst 33342 accumulation assay in MDCK-MDR1 cells
MDR1, sequence (P08183 whole entry): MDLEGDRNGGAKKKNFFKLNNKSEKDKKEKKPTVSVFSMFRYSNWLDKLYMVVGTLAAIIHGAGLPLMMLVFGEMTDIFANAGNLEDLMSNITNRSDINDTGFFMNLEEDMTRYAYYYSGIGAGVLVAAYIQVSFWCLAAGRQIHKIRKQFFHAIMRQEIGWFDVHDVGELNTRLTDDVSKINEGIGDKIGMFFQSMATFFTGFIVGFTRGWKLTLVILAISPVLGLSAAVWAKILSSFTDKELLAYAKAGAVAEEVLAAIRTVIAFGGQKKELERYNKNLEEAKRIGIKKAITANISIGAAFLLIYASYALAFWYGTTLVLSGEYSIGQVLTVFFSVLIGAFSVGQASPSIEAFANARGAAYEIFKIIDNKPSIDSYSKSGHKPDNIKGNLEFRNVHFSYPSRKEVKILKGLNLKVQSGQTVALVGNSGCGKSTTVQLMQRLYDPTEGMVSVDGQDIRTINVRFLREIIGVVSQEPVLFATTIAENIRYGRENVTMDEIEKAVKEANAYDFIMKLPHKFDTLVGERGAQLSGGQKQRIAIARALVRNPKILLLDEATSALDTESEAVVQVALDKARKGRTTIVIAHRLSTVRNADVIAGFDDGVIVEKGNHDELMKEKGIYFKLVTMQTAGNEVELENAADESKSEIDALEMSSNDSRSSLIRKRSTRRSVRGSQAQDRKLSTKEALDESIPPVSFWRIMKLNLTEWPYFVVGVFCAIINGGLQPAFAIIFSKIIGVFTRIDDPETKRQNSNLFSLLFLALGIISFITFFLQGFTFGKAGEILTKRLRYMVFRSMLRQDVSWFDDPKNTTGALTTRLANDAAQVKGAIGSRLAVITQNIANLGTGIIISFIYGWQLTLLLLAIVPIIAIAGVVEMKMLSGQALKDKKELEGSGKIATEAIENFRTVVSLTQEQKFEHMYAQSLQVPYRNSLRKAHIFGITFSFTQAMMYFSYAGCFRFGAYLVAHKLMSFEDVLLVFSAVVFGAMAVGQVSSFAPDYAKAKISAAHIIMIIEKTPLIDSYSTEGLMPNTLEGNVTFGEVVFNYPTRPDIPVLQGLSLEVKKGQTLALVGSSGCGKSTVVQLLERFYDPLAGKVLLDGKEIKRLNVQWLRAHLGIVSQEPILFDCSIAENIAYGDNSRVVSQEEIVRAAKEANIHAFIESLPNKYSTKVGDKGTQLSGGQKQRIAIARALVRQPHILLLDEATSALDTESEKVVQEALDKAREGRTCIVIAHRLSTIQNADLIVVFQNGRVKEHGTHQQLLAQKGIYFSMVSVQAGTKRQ
Description: ABC transporter-expressing MDCK cells were seeded in 96-well plates at a density of 25 x 10^3 cells per well and cultivated in DMEM medium supplemented with 10% FBS. Forty-eight hours after seeding, the cells were used in accumulation experiments with Hoechst 33342 (a common fluorescent substrate of MDR1 and BCRP) or efflux assays with Calcein (a fluorescent substrate of MRP2). Briefly, at the end of the 48 hours, the medium was aspirated and the cells were washed with pre-warmed PBS and then preincubated with efavirenz in Opti-MEM for 30 minutes. In the Hoechst 33342 assays, a solution of Hoechst 33342 (50 μg/ml) in Opti-MEM was added and allowed to accumulate for 30 minutes. The experiment was stopped by aspirating the medium and washing the cells twice with ice cold PBS. Intracellular fluorescence was then measured using excitation and emission wavelengths of 350 nm and 465 nm, respectively. In the calcein efflux assays, a solution of calcein AM in Opti-MEM with or without efavirenz was added after the pre-incubation phase and allowed to accumulate for 15 minutes. […] Calcein fluorescence was measured using excitation and emission wavelengths of 496 nm and 516 nm, respectively.
Statistical analyses were performed using GraphPad Prism, version 7.03 (GraphPad Software, San Diego, CA). P values were calculated using multiple two-tailed t-tests or one-way ANOVA followed by Dunnett’s or Bonferroni’s multiple comparison test, as appropriate. […] The half-maximal inhibitory concentration (IC50) was calculated by non-linear regression analysis using sigmoidal Hill kinetics.
Model inhibitors of MDR1, BCRP and MRP2, namely LY335979 (LY, 1 μM), Ko143 (2.5 μM), and MK571 (10 μM), respectively, were used as positive controls at the minimal concentrations causing maximal inhibition in the corresponding cellular system and assay. […] Data were analyzed by one-way ANOVA followed by Bonferroni’s multiple comparison test (* P ≤ 0.05, ** P ≤ 0.01, *** P ≤ 0.001) and are presented as means ± SD of at least three experiments (n = 3–5) performed in triplicate.

T1 sequence (Q96FL8 whole entry): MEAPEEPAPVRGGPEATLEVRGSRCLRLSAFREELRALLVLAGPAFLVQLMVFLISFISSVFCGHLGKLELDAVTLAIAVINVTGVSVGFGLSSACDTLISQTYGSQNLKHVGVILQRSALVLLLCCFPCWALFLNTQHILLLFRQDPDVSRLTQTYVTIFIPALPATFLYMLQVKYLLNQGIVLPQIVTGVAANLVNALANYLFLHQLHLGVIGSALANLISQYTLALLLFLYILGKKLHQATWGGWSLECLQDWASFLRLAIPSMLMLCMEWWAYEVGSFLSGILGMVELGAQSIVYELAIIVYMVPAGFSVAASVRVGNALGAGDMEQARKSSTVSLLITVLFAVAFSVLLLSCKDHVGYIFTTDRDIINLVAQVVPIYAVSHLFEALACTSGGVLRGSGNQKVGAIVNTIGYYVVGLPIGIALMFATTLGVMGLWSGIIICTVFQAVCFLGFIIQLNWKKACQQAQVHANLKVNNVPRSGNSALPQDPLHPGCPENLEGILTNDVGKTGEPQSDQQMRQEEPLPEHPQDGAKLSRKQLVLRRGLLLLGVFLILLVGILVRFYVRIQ

Structure (SMILES): O=C1Nc2ccc(Cl)cc2[C@@](C#CC2CC2)(C(F)(F)F)O1 [efavirenz, Efavirenz]
- IC50 [1]: 3.85 µM
- Effect on basolateral-to-apical transport of [3H]-MPP+ ([2]; 2 nM MPP+, MDCK-OCT2): Inhibition
- Effect on intracellular accumulation of [3H]-MPP+ ([2]; 2 nM MPP+, MDCK-OCT2 monolayers): significantly reduced
- Effect on intracellular accumulation of [3H]-lamivudine ([2]; 10 nM lamivudine, MDCK-OCT2): significantly reduced
- Effect on transcellular transport of [3H]-lamivudine ([2]; 10 nM lamivudine, basal to apical, MDCK-OCT2): significantly inhibited
- Effect on basolateral-to-apical transport of [3H]-MPP+ ([3]; 2 nM MPP+, MDCK-MATE1): Inhibition
- Effect on intracellular accumulation of [3H]-MPP+ ([3]; 2 nM MPP+, MDCK-MATE1 monolayers): increased
- Effect on intracellular accumulation of [3H]-lamivudine ([3]; 10 nM lamivudine, MDCK-MATE1): enhanced
- Effect on basolateral-to-apical transport of [3H]-MPP+ ([4]; 2 nM MPP+, MDCK-OCT1-MATE1): Inhibition
- Effect on intracellular accumulation of [3H]-MPP+ ([4]; 2 nM MPP+, MDCK-OCT1-MATE1 monolayers): unaffected
- Effect on intracellular accumulation of [3H]-lamivudine ([4]; 10 nM lamivudine, OCT1-MATE1 cells): remained unaffected
- Effect on transcellular transport of [3H]-lamivudine ([4]; 10 nM lamivudine, basal to apical, MDCK-OCT1-MATE1): significantly inhibited
- Inhibition of calcein efflux from parental MDCK cells [5]: not
- 50x the unbound concentration of efavirenz in elimination organs [6]: around 2.7 μM
- Inhibition of MRP transporters [7]: inhibit
- Concentrations showing an inhibitory effect on MDR1 ([8]; Hoechst 33342 accumulation): ≥ 25 µM
- IC50 ([8]; MDR1 absolute IC50, Hoechst 33342 accumulation, control inhibitor LY335979 1 μM = 100%): 33.3 µM
- IC50 ([8]; MDR1 relative IC50, Hoechst 33342 accumulation, maximal inhibition by efavirenz alone = 100%): 24.4 µM
